Among the data in US5102907A, “Novel squalene synthetase inhibitors” (Merck & Co., Inc., priority 1990, dated 1992) are MIC values, retold here.

Common to all, as to assay: antifungal (yeast) sensitivity, inhibitor dilution assay in microtiter format
Details in all cases: YNB/G, lowest concentration to prevent growth, 24 to 48 hours, 35° C., read-out: Minimum Inhibitory Concentration

One assay deals with C. tropicalis MY1012. In kind it is cell-based, Candida tropicalis. On the procedure:
(§1) The compounds are particularly active towards filamentous fungi and yeasts including Candida albicans and Cryptococcus neoformans. The sensitivity of filamentous fungi and yeast was determined using inhibitor dilution assays in microtiter format. The compounds were dissolved in DMSO at 2 mg/ml and serially diluted in 0.1M phosphate buffer, pH 7.0 in the microtiter dish from 100 to 0.006 μg/ml. A standardized spore suspension for testing the filamentous fungi was prepared by inoculating Antibiotic Medium #3 containing 1.5% agar with spores such that 1.5×10^3 colony forming units were added per well. The microtiter wells were filled with 50 μl of buffer containing compound and 50 μl of inoculated medium.
(§2) The sensitivity of yeasts was determined by inoculating yeast nitrogen base containing 1% dextrose (YNB/G) with aliquots of an overnight yeast culture grown in Yeast Morphology (YM) media at 35° C. and diluting in YNB/G to yield a final concentration of 1.5-7.5×10^3 colony forming units/well. To test the sensitivity of yeast, compound was solubilized in 10 percent aqueous DMSO at 2.56 mg/ml. The compound was diluted serially in YNB/G from 128 to 0.06 μg/ml and further diluted 1:10 in YNB/G. The wells were filled with 150 μl of media containing drug. […]

The next assay concerns C. parapsilosis MY1010. It counts as cell-based, Candida parapsilosis. The procedure:
as §1, §2

The next assay has as its system Crypt. neoformans MY1051. In kind it is cell-based, Cryptococcus neoformans. On the procedure:
as §1, §2

Each structure is given as a SMILES string. Converted amounts (≈) assume the structure as drawn.

As for `CC(=O)OC(CCCC12OC(C(=O)O)C(O)(C(=O)O)C(C(=O)O)(O1)C(OC(=O)CCC=CC(C)CCCc1ccccc1)C2O)C(C)Cc1ccccc1` (stereo not drawn) [Compound A], the MIC in the assay with C. tropicalis MY1012 came out at 8 µg/mL (≈ 10.6 µM); in the assay on C. parapsilosis MY1010, 8 µg/mL (≈ 10.6 µM); in the assay with Crypt. neoformans MY1051, 1 µg/mL (≈ 1.32 µM).
